The results in this text go back to patent US20170165259A1, “COMBINED MODULATION OF IRE1” (THE REGENTS OF THE UNIVERSITY OF CALIFORNIA, priority 2014, published 2017).

Series [1] in a line: Compound toxicity / proliferative blocks in cells. The series is classed as cell-based.
The target of series [2] is T1, IRE1α* (Homo sapiens, UniProt O75460).
T1 construct: human IRE1α (residues 469-977, IRE1α*); made in house; host or cells: SF9 insect cells, Bac-to-Bac baculovirus
The series can be described thus: XBP1 RNA minisubstrate (FRET-quenched) RNase assay. The series is classed as biochemical. Particulars: IRE1α*.

Series [3] in a line: Pharmacokinetic profile in BALB/c mice. The series is classed as in vivo, mouse. As to conditions: 10 mg/kg.
In series [4] the target is T1, IRE1α*. The series can be described thus: IRE1α* kinase assay (96-well dot blot, 32γ-ATP, STK peptide substrate 2). The series is classed as biochemical. The method, then:
FIGS. 16A-16C. Divergent modulation of IRE1α RNase activity using distinct classes of kinase inhibitors. (FIG. 16A) KIRA6 inhibition of IRE1α* kinase activity. IC50 values determined by fitting percent kinase activity (n=3); Urea PAGE of competition cleavage by IRE1α* of XBP1 RNA mini-substrate (FIG. 16B) and α^32P-labeled Ins2 RNA (FIG. 16C), under indicated [KIRA6]; IC50s determined by fitting in-gel fluorescence intensities (XBP1) and phosphorimager (Ins2).
KIRAs are tested for ability to inhibit IRE1α* kinase and RNase activities in vitro. The XBP1 minisubstrate assay shown in FIGS. 1B-1C, is amenable to 96- or 384-well format, and is used to determine RNase IC50s. In parallel, kinase IC50s for all KIRAs are determined in a 96-well dot blot assay with 32γ-ATP and STK peptide substrate 2 as substrates. Time-dependence of inhibition is determined for all electrophile-containing KIRAs. RNase and kinase assays have been used to profile the KIRAs in FIG. 13, showing a strong correlation between kinase and RNase IC50s. […] Thus, the structure-based design strategy uses these two kinases as counter targets (described below).

Series [5] concerns adult rats. The series can be described thus: Tm-induced acute photoreceptor loss, intravitreal co-injection. The series is classed as in vivo. Particulars: Tm at 3 μg/ml. The method, then: […]. […] Rhodopsin mRNA may be an IRE1α RNase substrate since Rhodopsin RNA is cleaved by IRE1α*, but not RNase-dead IRE1α* (N906A), at a primary G/C site with flanking sequence similarity to scission sites in XBP1.
Next, to test whether KIRA6 also provides functional protection, we established a dose-response curve to determine threshold [Tm] that cause functional retinal damage as measured by scotopic electroretinograms (ERG). Based on the results, we injected Tm at 3 μg/ml.
Mice were anaesthetized with 1.5-3% isoflurane, eyes were dilated with 2.5% phenylephrine hydrochloride and 1% tropicamide, and corneas were kept moist with regular application of 2.5% methylcellulose. Eyes were examined using a Micron III retinal imaging system (Phoenix Research Labs). […]
Rats dark-adapted overnight were anesthetized with ketamine (100 mg/ml) and xylazine (20 mg/ml) via intraperitoneal injection in dim red light. […] Briefly, […] flashes of white light of increasing intensities were used to induce bilateral, full-field ERGs; responses were recorded using contact lens electrodes with a UTAS-E 3000 Visual Electrodiagnostic System (LKC Technologies, Inc.). […] Briefly, 10-μsec flashes of white light of increasing intensities were used to induce bilateral, full-field ERGs; responses were recorded using contact lens electrodes with a UTAS-E 3000 Visual Electrodiagnostic System (LKC Technologies, Inc.).

For series [6], the system named is Ins2^+/Akita (Akita) mouse. The series can be described thus: Akita mouse chronic efficacy study. It is filed as in vivo. As to conditions: 49 days from initial injection. As for the experimental part:
FIGS. 17A-17C. […] (FIGS. 17A-17B) Random insulin and C-peptide levels in Ins2^+/Akita mice on Day 58 (21 d post injections). KIRA6 (5 mg/kg)(n=5) and vehicle (n=4). (FIG. 17C) Total β-cell area as a percentage of total pancreas area on Day 55 (18 d post injections). KIRA6 (5 mg/kg)(n=6) and vehicle (n=3).
Based on low micromolar KIRA6 needed for protection in cell culture, we chose i.p. dosing regimens of 5 or 10 mg/kg b.i.d for Akita chronic efficacy studies to provide similar exposure. We injected KIRA6 into randomized 3-week old male Akita mice when their random blood glucose levels were at prediabetic range (˜200 mg/dl).
[…] and C57BL/6 Ins2^WT/C96Y (Ins2^+/Akita) mice were obtained from Jackson Laboratories. Glucose levels were measured from tail snips obtained between 9:00 and 11:00 AM using a glucometer (Nova Statstrip Xpress, Data Sciences International). Serum insulin and C-peptide levels were measured using mouse ultra-sensitive insulin and C-peptide ELISA (Mercodia). […]
Mice were fasted for 17 h before i.p. injection with glucose (2 g/kg of body weight). Blood was collected from the tail, and glucose levels were determined by using a glucometer (Nova Statstrip Xpress, Data Sciences International).
Pancreatic sectioning, staining and analysis were done as described previously (Chintinne et al., 2010). […] A minimum of 2% of the total organ volume was stained and measured. […]

Structures are written as SMILES. pIC50: −log10 of the molar value.

T1 sequence (O75460 469-977): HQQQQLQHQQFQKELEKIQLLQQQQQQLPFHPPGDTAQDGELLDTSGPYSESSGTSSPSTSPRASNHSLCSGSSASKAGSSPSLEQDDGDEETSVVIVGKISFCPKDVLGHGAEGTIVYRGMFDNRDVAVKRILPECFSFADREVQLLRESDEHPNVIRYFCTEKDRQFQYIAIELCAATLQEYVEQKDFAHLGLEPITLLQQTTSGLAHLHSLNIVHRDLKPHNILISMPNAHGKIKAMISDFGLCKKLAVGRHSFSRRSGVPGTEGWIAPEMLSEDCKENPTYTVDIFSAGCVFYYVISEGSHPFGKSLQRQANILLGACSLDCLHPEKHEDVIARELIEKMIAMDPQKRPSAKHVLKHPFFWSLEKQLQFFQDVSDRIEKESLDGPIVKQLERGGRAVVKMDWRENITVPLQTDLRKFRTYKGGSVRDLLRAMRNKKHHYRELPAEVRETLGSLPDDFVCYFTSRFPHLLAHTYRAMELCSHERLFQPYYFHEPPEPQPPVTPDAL

A word on the pIC50: it is −log10 of the IC50, conventionally taken in molar units. The low end stands for a high IC50, the high end for a low IC50. The Cmax is the peak of the concentration-time curve. What is called half-life is how long it takes for the measured level to halve. High values mean slow decline, low ones rapid decline. Regarding `CC(C)(C)c1nc(-c2ccc(NC(=O)Nc3cccc(C(F)(F)F)c3)c3ccccc23)c2c(N)nccn12` [KIRA6, 1-(4-(8-amino-3-tert-butylimidazo[1,5-a]pyrazin-1-yl)naphthalen-1-yl)-3-(3-(trifluoromethyl)phenyl)urea], the toxicity in cells entry in series [1] is reported as “negligible toxicity up to 10 μM”. This compound also had a pIC50 in series [2] of 6.68. The same compound showed a clearance in series [3] (i.p.) of 22.4 mL/min/kg. Further, the AUC(0-t) in series [3] (mouse, ip, plasma, read-out: AUC 0-24 h) was 14.3 µM·h. Besides, in series [3] (mouse, plasma, ip), the Cmax was 3300 nM and the half-life was 3.9 h. For the same compound, in series [3] (mouse, plasma, ip, read-out: plasma level at 4 hr), the concentration at 4 h was 1200 nM. Besides, the concentration at 8 h in series [3] (mouse, plasma, ip, read-out: plasma level at 8 hr) turned out to be 330 nM. Also, the negative logarithm of the IC50 (pIC50) in series [4] is 6.21. The “scotopic ERG responsiveness” value in series [5] is “substantially protects against loss of ERG responsiveness, significantly preserving both a- and b-wave amplitudes”. Besides, in series [6], the “body weight vs vehicles” value is “no significant differences in weight from vehicles” and the general health result is given as “appeared healthy even after 49 days from initial injection”.
